# From patent publication US20050011468A1, “Use of methylnaltrexone in treating gastrointestinal dysfunction in equines” (priority 2002, published 2005)
# How the values were obtained:
# gut motility = conditions: β-endorphin homologues from six species; read-out: IC50 on the standard model of gut motility; cited from earlier work
# [1] = cited from earlier work
# morphine-induced rage = conditions: in an animal; cited from earlier work
# [2] = system: bowel peristalsis / gastric emptying; experiment: postoperative colic (ileus) in a burn patient treated with methylnaltrexone infusion; assay type: in vivo, human; conditions: following administration of the drug (unpublished data)
# From the text: Recent human data support the role of endogenous opioids, including endorphins, in the pathogenesis of postoperative ileus in humans. See Taguchi A., et al., “Selective postoperative inhibition of gastrointestinal opioid receptors,” New Engl. J. Med. 345:935-40, 2001. No reference is made to either equine colic or the etiology of perioperative management of equines or other animals. […] Prior to administration, there had been no evidence of bowel peristalsis and no passage of flatus. See Moss J., et al., “Selective postoperative inhibition of gastrointestinal opioid receptors,” (correspondence) New Engl. J. Med. 346(6):455 (2002).
# [3] = in vivo; cited from earlier work
# [4] = system: bowel peristalsis / gastric emptying; conditions: one burn patient with postoperative colic; infusion 0.3 mg/kg over 15 minutes; during drug administration; cited from earlier work
Molecule,IC50 (gut motility) [nM],absorption after oral administration ([1]; from the stomach and bowel),"time to initial plasma levels ([1]; oral administration, non-enteric coated compound) [min]",severity of morphine-induced rage (morphine-induced rage),gastric residuals [2],crossing of the blood-brain-barrier [3],bowel sounds and flatus [4]
"human endorphin: human homologue of β-endorphin, IC50 printed as 'that of humans'",12.2,,,,,,
C[N@+]1(CC2CC2)CC[C@]23c4c5ccc(O)c4O[C@H]2C(=O)CC[C@@]3(O)[C@H]1C5 [methylnaltrexone],,rapidly absorbed,5 to 10,minimize the severity,markedly reduced,does not cross the blood-brain-barrier,prompt restoration of bowel sounds and flatus
